Laboratory results from patent publication US20240190821A1, “SULFONAMIDE SUBSTITUTED N-(1H-INDOL-7-YL)BENZENESULFONAMIDES AND USES THEREOF” (Triana Biomedicines, Inc., priority 2021, published 2024).
Where two headings read alike, the source gives them in different places.

Legend:
[1] = molecular target: T1, DCAF15-RBM39 ternary complex (Homo sapiens, UniProt Q14498+Q66K64); assay: Compound-induced DCAF15-RBM39 ternary complex formation, AlphaLISA; format: biochemical; conditions: AlphaLISA, His-tagged DCAF15 complex and biotin-carrying RBM39; read-out: Ternary-RBM39 (RRM2) EC50
T1 construct: (RRM2)
T1 sequence (Q66K64 whole entry): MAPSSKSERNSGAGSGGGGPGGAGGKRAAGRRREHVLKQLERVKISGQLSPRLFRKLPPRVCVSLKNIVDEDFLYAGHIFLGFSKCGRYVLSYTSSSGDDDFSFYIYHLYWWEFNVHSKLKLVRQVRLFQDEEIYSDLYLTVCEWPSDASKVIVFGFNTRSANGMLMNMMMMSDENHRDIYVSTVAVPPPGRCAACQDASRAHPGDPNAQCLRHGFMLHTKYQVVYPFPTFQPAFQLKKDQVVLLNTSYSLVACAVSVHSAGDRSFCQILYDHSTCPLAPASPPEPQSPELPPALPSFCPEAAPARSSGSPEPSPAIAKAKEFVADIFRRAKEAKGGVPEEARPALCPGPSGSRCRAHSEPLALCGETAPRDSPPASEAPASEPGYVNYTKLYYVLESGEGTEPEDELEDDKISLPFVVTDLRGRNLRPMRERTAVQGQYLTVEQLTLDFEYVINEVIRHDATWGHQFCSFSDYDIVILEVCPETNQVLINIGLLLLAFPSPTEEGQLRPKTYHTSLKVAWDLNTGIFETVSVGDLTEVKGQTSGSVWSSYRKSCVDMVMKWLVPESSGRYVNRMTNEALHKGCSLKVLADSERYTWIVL
T1 sequence (Q14498 250-328 limits assumed): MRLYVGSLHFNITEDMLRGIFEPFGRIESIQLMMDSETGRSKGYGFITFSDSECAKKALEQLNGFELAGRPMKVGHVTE
T1 sequence (Q16531 whole entry partner): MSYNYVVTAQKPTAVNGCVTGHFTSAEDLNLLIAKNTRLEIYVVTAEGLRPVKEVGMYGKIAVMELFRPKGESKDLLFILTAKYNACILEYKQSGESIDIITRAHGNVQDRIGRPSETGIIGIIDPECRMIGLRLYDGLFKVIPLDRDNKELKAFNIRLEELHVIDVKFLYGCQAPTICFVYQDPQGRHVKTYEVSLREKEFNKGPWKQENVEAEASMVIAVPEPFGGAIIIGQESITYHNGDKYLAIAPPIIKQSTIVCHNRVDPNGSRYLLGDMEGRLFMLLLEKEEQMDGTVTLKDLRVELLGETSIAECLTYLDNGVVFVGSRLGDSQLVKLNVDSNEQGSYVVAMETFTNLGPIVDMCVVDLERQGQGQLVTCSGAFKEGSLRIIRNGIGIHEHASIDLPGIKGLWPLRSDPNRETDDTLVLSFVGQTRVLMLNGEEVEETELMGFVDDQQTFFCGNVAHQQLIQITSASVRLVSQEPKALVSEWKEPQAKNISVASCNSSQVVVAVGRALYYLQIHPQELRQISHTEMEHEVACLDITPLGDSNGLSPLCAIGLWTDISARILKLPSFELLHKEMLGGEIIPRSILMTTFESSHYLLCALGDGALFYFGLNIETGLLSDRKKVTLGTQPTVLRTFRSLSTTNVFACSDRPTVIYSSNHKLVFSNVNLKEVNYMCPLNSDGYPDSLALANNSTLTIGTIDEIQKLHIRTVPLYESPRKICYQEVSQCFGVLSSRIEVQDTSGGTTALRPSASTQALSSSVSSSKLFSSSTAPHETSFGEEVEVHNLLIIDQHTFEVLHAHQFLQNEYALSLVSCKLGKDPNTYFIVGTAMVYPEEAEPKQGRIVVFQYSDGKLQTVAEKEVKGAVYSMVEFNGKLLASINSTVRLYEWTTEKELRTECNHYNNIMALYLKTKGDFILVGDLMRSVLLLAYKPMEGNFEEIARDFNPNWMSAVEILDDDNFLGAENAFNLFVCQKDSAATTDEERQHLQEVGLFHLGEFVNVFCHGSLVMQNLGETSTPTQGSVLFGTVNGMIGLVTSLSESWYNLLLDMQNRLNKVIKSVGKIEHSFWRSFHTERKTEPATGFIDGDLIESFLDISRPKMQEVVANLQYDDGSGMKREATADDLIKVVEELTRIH
Outline: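 Protein mixture incubated with compounds for one hour at room temperature; AlphaLISA beads then added sequentially, 1-2 h at room temperature after each. No-compound wells served as negative controls; His-tagged biotinylated GST tracked assay performance.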

RBM39 = molecular target: T2, RBM39 (Homo sapiens, UniProt Q14498+Q66K64); assay: Western blot assay for degradation of RBM39 in HCT116 cells; format: cell-based; conditions: HCT116, 4 h
T2 construct: endogenous in cells; host or cells: HCT116
Description: Example 107: Western Blot Assay Procedure for Assessing Degradation of RBM39 in HCT116 Cells
HCT116 cells were used with passage numbers ranging from 13 to 25. Cells were seeded in 12-well plated at a density of 1 million cells per well in 1 mL cell culture medium containing McCoy's 5A medium (Cat. #16600082, ThermoFisher, Waltham, MA), 10% Fetal Bovine Serum (Cat. #26140, ThermoFisher, Waltham, MA) and 1% Pen-Strep (Cat. #. 15070063, ThermoFisher, Waltham, MA) and incubated overnight. The next morning, compounds were serially diluted (1:3, 9 points) in the medium separately and were prepared 2× the final assay concentration. Subsequently, 1.0 mL medium containing DMSO or the appropriate concentration of each compound was added to respective wells. The final DMSO concentration in each well was 0.1%. […] Cells were then washed once with 1 mL of ice cold Dulbecco's phosphate-buffered saline (Cat. #28374, ThermoFisher, Waltham, MA) and then lysed with 100 μl of lysis buffer containing 1× RIPA (Cat. #. 89900, ThermoFisher, Waltham, MA) and HALT protease and phosphatase inhibitor (Cat. #78442, ThermoFisher, Waltham, MA) on ice for 10 minutes with intermittent rocking. Lysates were then sonicated in a sonication bath (3 pulses of 10 sec each with 1 min incubation on ice between each pulse). Samples were then centrifuged for 20 min at 14,000 rpm for 20 min. Supernatants were then transferred to fresh microfuge tubes and stored frozen at −80° C. until use. Total protein quantitation in lysate samples was done using the BCA protein quantitation kit following the manufacturer's instructions. For polyacrylamide gel electrophoresis, each sample ([…] total protein), was diluted with Laemmli sample buffer (Cat. #. 1610747, BioRad, Hercules, CA) by adding 9 ul of lysate to 3 ul of sample buffer containing 10% β-mercaptoethanol. Samples were then denatured at 95° C. for 5 minutes in a heat block, centrifuged at 14,000 rpm for 5 min, and placed on ice. Subsequently, 12 ul of each sample was loaded on 4-20% Tris/Glycine gels and electrophoresed in 1×Tris/Glycine SDS buffer at 80 (constant) volts for 2 h. Resolved samples were then transferred from gels to PVDF membrane using the BioRad Turbo-transfer unit with the Turbo default program (Cat. #. 1704150EDU, BioRad, Hercules, CA). For immunoblotting, membranes were first blocked for 1 hour at room temperature using Odyssey Blocking Buffer (Cat. #: 927-60001, Li-cor, Lincoln, NE) with continuous rocking. Membrane was then incubated with primary antibodies, anti-RBM39 (Sigma Cat. #: HPA001591, St. Louis, MO) and anti-β-actin (Cell Signaling Cat. #3700S, Danvers, MA), diluted 1000 fold each, at 4° C. for overnight. Subsequently, membrane was washed three times for at room temperature with continuous rocking (5 minutes each wash) using TBS buffer containing 0.1% Tween-20. After the final wash, secondary antibodies, IRDye 680 RD Goat anti Mouse IgG H+L (Cat. #: 926-68070, Li-cor, Lincoln, NE), and IRDye 800CW Goat anti Rabbit IgG H+L (Cat. #: 926-32211, Li-cor, Lincoln, NE), each diluted 10,000-fold, were added to the membranes and incubated at room temperature for 1 h with continuous rocking. Membranes were then washed 3 times with 1×TBS and scanned using Odessey CLx imaging system (Li-cor, Lincoln, NE) using default settings. Band intensity in images was quantified using the Image Studio Lite software (Version 5.2). Signal intensity for RBM-39 specific bands were normalized using the signal intensity for β-actin-specific band, and percent degradation was assessed by comparing RBM39 signal in compound-treated vs. DMSO-treated samples.

HCT116 cells = assay: HCT116 cell viability using CellTiter-Glo; format: cell-based; conditions: read-out: 3-Day CTG IC50 in HCT116
Description: Example 108: Measurement of HCT116 Cell Viability Using CellTiter-Glo
HCT116 cells with the passage number ranging from 13 to 25 were plated in an opaque-walled 384 well plate (Corning, Cat. #3765, Corning, NY) at a density of 1000 cells/well in 50 μl medium containing McCoy's 5A medium (Cat. #16600082, ThermoFisher, Waltham, MA), 10% Fetal Bovine Serum (Cat. #26140, ThermoFisher, Waltham, MA) and 1% Pen-Strep (Cat. #. 15070063, ThermoFisher, Waltham, MA). After overnight incubation, cells were treated with various concentrations of compounds (0-10 μM) in DMSO (final concentration of 0.2% DMSO) for 72 h. CellTiter-Glo® Reagent (Cat. #G7573, Promega, Waltham, MA) was then added to all wells. The plates were placed on an orbital shaker to mix the content and induce cell lysis. The plates were then incubated at room temperature for 10 minutes to stabilize luminescent signal. The luminescence was recorded using Envision multilabel plate reader (Perkin-Elmers, Waltham, MA) and the data was fit by using Excel-fit (Microsoft, Redmond, WA).

DCAF15 = DCAF15 (Homo sapiens, UniProt Q66K64); assay: Binary interaction between compounds and DCAF15, HTRF competition assay; format: binding; conditions: HTRF competition with Alexa Fluor 647 tracer, His-tagged DCAF15 complex; read-out: DCAF15 IC50
Sequence of DCAF15 (Q66K64 whole entry): as the sequence (Q66K64 whole entry) above
Sequence of DCAF15 (Q16531 whole entry partner): as the sequence (Q16531 whole entry partner) above
Outline: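 HTRF competition format: DCAF15 premixed 15 min at room temperature with anti-6His-Eu cryptate antibody, then combined with tracer and compound. Binding derived from ratiometric signal with titration curves; no-DCAF15 wells as controls.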

[2] = Homo sapiens, HCT-116, HCT116, 72 h

| EC50 [1] [nM] | DC50 (RBM39) [nM] | IC50 (HCT116 cells; HCT116, 72 h) [nM] | IC50 (DCAF15) [nM] | IC50 (HCT116 cells; [2]) [nM] | SMILES |
| --- | --- | --- | --- | --- | --- |
| < 5000 | < 100 | < 5000 |  |  | Nc1ccc(S(=O)(=O)Nc2cnc3c(Cl)cccc3n2)cc1 [CQS, cloroquinoxaline sulfonamide, reference compound] |
| < 1000 | < 100 |  |  |  | Cc1ccc(NS(=O)(=O)c2ccc(-n3ccnn3)cc2)c2[nH]cc(C#N)c12 [Compound 95, N-(3-cyano-4-methyl-1H-indol-7-yl)-4-(1H-1,2,3-triazol-1-yl)benzenesulfonamide] |
| < 1000 | < 100 |  |  |  | N#Cc1cccc(S(=O)(=O)Nc2ccc(Cl)c3c(Cl)c[nH]c23)c1 [Compound 74, 3-cyano-N-(3,4-dichloro-1H-indol-7-yl)benzenesulfonamide] |
| < 5000 |  |  | < 100000 | < 1000 | Cc1ccc(NS(=O)(=O)c2cc(F)cc(C#N)c2)c2[nH]cc(C(F)F)c12 [Compound 101, 3-cyano-N-(3-(difluoromethyl)-4-methyl-1H-indol-7-yl)-5-fluorobenzene sulfonamide] |
| < 1000 | < 1000 |  |  | < 100 | O=S(=O)(Nc1ccc(Cl)c2c(Cl)c[nH]c12)c1ccc(S(=O)(=O)N2CCNCC2)cc1 [Compound 42, N-(3,4-dichloro-1H-indol-7-yl)-4-(piperazin-1-ylsulfonyl)benzenesulfonamide] |
| < 1000 | < 100 |  | < 20000 |  | Cc1ccc(NS(=O)(=O)c2cccc(-n3ccnn3)c2)c2[nH]cc(C#N)c12 [Compound 96, N-(3-cyano-4-methyl-1H-indol-7-yl)-3-(1H-1,2,3-triazol-1-yl)benzenesulfonamide] |
| < 1000 | < 1000 |  |  |  | NCCCCCCCNS(=O)(=O)c1ccc(S(=O)(=O)Nc2ccc(Cl)c3c(Cl)c[nH]c23)cc1 [Compound 8, N^1-(7-aminoheptyl)-N^4-(3,4-dichloro-1H-indol-7-yl)benzene-1,4-disulfonamide] |
| < 5000 |  |  |  | < 1000 | Cc1ccc(NS(=O)(=O)c2cccc(C#N)c2)c2[nH]cc(C(F)F)c12 [Compound 100, 3-cyano-N-(3-(difluoromethyl)-4-methyl-1H-indol-7-yl)benzenesulfonamide] |
| < 1000 |  |  |  | < 1000 | COCCNS(=O)(=O)c1ccc(S(=O)(=O)Nc2ccc(Cl)c3c(Cl)c[nH]c23)cc1 [Compound 2, N^1-(3,4-dichloro-1H-indol-7-yl)-N^4-(2-methoxyethyl)benzene-1,4-disulfonamide] |
|  |  |  |  | < 1000 | Cc1ccc(NS(=O)(=O)c2cccc(C#N)c2)c2[nH]cc(C#N)c12 [Compound E-7820, E-7820, reference compound] |
| < 5000 |  |  | < 5000 |  | Cc1nc2c(n1C)CCN(S(=O)(=O)c1ccc(S(=O)(=O)Nc3ccc(Cl)c4c(Cl)c[nH]c34)cc1)C2 [Compound 53, N-(3,4-dichloro-1H-indol-7-yl)-4-((1,2-dimethyl-1,4,6,7-tetrahydro-5H-imidazo[4,5-c]pyridin-5-yl)sulfonyl)benzene sulfonamide] |
| < 1000 |  |  | < 100000 |  | O=S(=O)(Nc1ccc(Cl)c2c(Cl)c[nH]c12)c1ccc(S(=O)(=O)NC2CCOCC2)cc1 [Compound 28, N^1-(3,4-dichloro-1H-indol-7-yl)-N^4-(tetrahydro-2H-pyran-4-yl)benzene-1,4-disulfonamide] |
| < 5000 |  |  | < 100000 |  | O=S(=O)(Nc1ccc(Cl)c2c(Cl)c[nH]c12)c1ccc(S(=O)(=O)N2CCc3[nH]c(-c4ccccc4)nc3C2)cc1 [Compound 54, N-(3,4-dichloro-1H-indol-7-yl)-4-((2-phenyl-1,4,6,7-tetrahydro-5H-imidazo[4,5-c]pyridin-5-yl)sulfonyl) benzene sulfonamide] |
| < 1000 | < 1000 |  | < 100000 | < 1000 | COC(=O)CNS(=O)(=O)c1ccc(S(=O)(=O)Nc2ccc(Cl)c3c(Cl)c[nH]c23)cc1 [Compound 1, methyl ((4-(N-(3,4-dichloro-1H-indol-7-yl)sulfamoyl)phenyl)sulfonyl) glycinate] |
| < 1000 |  |  |  | < 1000 | NS(=O)(=O)c1ccc(S(=O)(=O)Nc2cccc3c(Cl)c[nH]c23)cc1 [Indisulam, indisulam, reference compound] |
| < 5000 |  |  | < 100000 |  | CN1CCC(S(=O)(=O)Nc2ccc(S(=O)(=O)Nc3ccc(Cl)c4c(Cl)c[nH]c34)cc2)CC1 [Compound 64, N-(4-(N-(3,4-dichloro-1H-indol-7-yl)sulfamoyl)phenyl)-1-methylpiperidine-4-sulfonamide] |
